Assay results: article PMC5435703 (Scientific Reports, 2017)
≈ marks a conversion by molar mass, not a printed value. Where two headings read alike, the source gives them in different places.

What was measured:
[1] = system: MRSA-1; assay: MIC broth microdilution assay; type: cell-based, Staphylococcus aureus; details: Staphylococcus aureus, MRSA; Table 1; read-out: MIC MRSA-1
[2] = system: MRSA BAA-44; assay: MIC broth microdilution assay; type: cell-based; details: Staphylococcus aureus; Table 1; read-out: MIC MRSA BAA-44
[3] = system: MRSA-2; assay: MIC broth microdilution assay; type: cell-based, Staphylococcus aureus; details: Staphylococcus aureus, MRSA; Table 1; read-out: MIC MRSA-2
[4] = system: MtB H37Ra; assay: MIC assay for Mycobacterium tuberculosis; type: cell-based; details: 168 h, seven days
[5] = LDH release assay for HeLa cytotoxicity; type: cell-based; details: human, HeLa cells; LDH release, 24 hours; tested at 25, 50 and 100 µM; read-out: HeLa Cytotox. IC50
[6] = system: MRSA BAA-1707; assay: Calgary Biofilm Device (CBD) MBC/MBEC assay; type: cell-based, Staphylococcus aureus; details: for MBC: read-out: MRSA BAA-1707 MBC; for MRSA BAA-1707 MBEC: biofilm eradication
[7] = system: MRSE 35984; assay: Calgary Biofilm Device (CBD) MBC/MBEC assay; type: cell-based, Staphylococcus epidermidis; details: Staphylococcus epidermidis, MRSE; CBD, planktonic killing; read-out: MRSE 35984 MBC
[8] = system: VRE 700221; assay: Calgary Biofilm Device (CBD) MBC/MBEC assay; type: cell-based, Enterococcus faecium; details: Enterococcus, VRE; CBD, planktonic killing; read-out: VRE 700221 MBC
[9] = Hemolysis assay with red blood cells; details: human, pH 7.2
[10] = system: MRSA BAA-1707; assay: MIC broth microdilution assay; type: cell-based, Staphylococcus aureus
[11] = system: MRSE 35984; assay: MIC broth microdilution assay; type: cell-based, Staphylococcus epidermidis; details: Staphylococcus epidermidis, MRSE
[12] = system: S. epi 12228; assay: MIC broth microdilution assay; type: cell-based, Staphylococcus epidermidis; details: Staphylococcus epidermidis, 12228
[13] = system: VRE 700221; assay: MIC broth microdilution assay; type: cell-based, Enterococcus faecium; details: Enterococcus, VRE
[14] = system: MRSA BAA-1707; assay: MIC assay with metal(II) cation co-treatment; type: cell-based, Staphylococcus aureus; details: Staphylococcus aureus
[15] = Staphylococcus aureus, 24 h, CBD, planktonic killing, 24 hours treatment
[16] = Staphylococcus aureus, Table 1, three independent experiments, read-out: MIC MRSA BAA-1707
[17] = Staphylococcus aureus, Table 3, read-out: MRSA BAA-1707 MIC
[18] = Table 1, read-out: MIC MRSE 35984
[19] = Table 3, read-out: MRSE 35984 MIC
[20] = Table 1, read-out: MIC S. epi 12228
[21] = Table 1, read-out: MIC VRE 700221
[22] = Table 3, read-out: VRE 700221 MIC
[23] = Staphylococcus aureus, single plate shown as picture, read-out: MIC (µM), MIC Assay against MRSA BAA-1707
[24] = single plate shown as picture, read-out: MIC (µM), MIC Assay Against MRSE 35984

| SMILES | MIC [1] [µM] | MIC [2] [µM] | MIC [3] [µM] | MIC [10, 16] [µM] | MIC [10, 17] [µM] | MIC [11, 18] [µM] | MIC [13, 21] [µM] | MIC [13, 22] [µM] | other results |
| --- | --- | --- | --- | --- | --- | --- | --- | --- | --- |
| Oc1c(Br)cc(Br)c2nc3ccc(Oc4ccccc4)cc3nc12 [HP 16] | 25 (≈ 11.2 µg/mL) |  |  |  |  |  |  |  |  |
| Cc1cc(Cl)c2nc3c(C)cc(Br)c(O)c3nc2c1 [HP 9] | 1.56 (≈ 0.527 µg/mL) | 1.56 (≈ 0.527 µg/mL) | 2.35 (≈ 0.793 µg/mL) |  |  |  |  |  | MIC [4]: 50 µM (≈ 16.9 µg/mL); IC50 at 24 h [5]: > 100 µM; MBC [6, 15]: > 200 µM; MBC [7]: 12.5 µM (≈ 4.22 µg/mL); MBC [8]: 12.5 µM (≈ 4.22 µg/mL); hemolysis at 1 h, 200 µM [9]: ≤ 1% |
| CCCCCCCCCC(=O)N[C@@H](Cc1c[nH]c2ccccc12)C(=O)N[C@H](CC(N)=O)C(=O)N[C@@H](CC(=O)O)C(=O)N[C@@H]1C(=O)NCC(=O)N[C@@H](CCCN)C(=O)N[C@@H](CC(=O)O)C(=O)N[C@H](C)C(=O)N[C@@H](CC(=O)O)C(=O)NCC(=O)N[C@H](CO)C(=O)N[C@@H]([C@H](C)CC(=O)O)C(=O)N[C@@H](CC(=O)c2ccccc2N)C(=O)O[C@@H]1C [daptomycin, reference compound] |  | 18.8 (≈ 30.5 µg/mL) |  | 3.13 (≈ 5.07 µg/mL) | 3.13 (≈ 5.07 µg/mL) | 12.5 (≈ 20.3 µg/mL) | 125 (≈ 203 µg/mL) | 125 (≈ 203 µg/mL) | MIC [11, 19]: 12.5 µM (≈ 20.3 µg/mL); MIC [12, 20]: 6.25 µM (≈ 10.1 µg/mL); MRSA BAA-1707 MBEC ([6]; CBD, 24 hours treatment): > 2000 µM; MBC [6, 15]: 125 µM (≈ 203 µg/mL); MBC [8]: 375 µM (≈ 608 µg/mL) |
| Cc1ccc2nc3c(Br)cc(Br)c(O)c3nc2c1 [HP 20] |  | […] | […] |  |  | 6.25 (≈ 2.3 µg/mL) |  |  |  |
| Cc1cc(Br)c(O)c2nc3ccccc3nc12 [HP 4] | 50 (≈ 14.5 µg/mL) | 50 (≈ 14.5 µg/mL) | 3.13 (≈ 0.905 µg/mL) | 3.13 (≈ 0.905 µg/mL) | 3.13 (≈ 0.905 µg/mL) |  | 3.13 (≈ 0.905 µg/mL) | 3.13 (≈ 0.905 µg/mL) | MIC [10, 23]: 3.13 µM (≈ 0.905 µg/mL); MIC [12, 20]: 3.13 µM (≈ 0.905 µg/mL); IC50 at 24 h [5]: > 100 µM; MBC [6, 15]: 46.9 µM (≈ 13.6 µg/mL); MBC [7]: 150 µM (≈ 43.4 µg/mL); hemolysis at 1 h, 200 µM [9]: ≤ 1% |
| Cc1cc(Br)c(O)c2nc3cc(C(C)(C)C)ccc3nc12 [HP 8] | > 100 |  |  | > 100 |  | > 100 | > 100 |  | MIC ([10]; Table 1, three independent experiments, read-out: MIC MRSA BAA-1707): >100 µM; MIC [11, 24]: > 100 µM |
| Cc1cc(Br)c(O)c2nc3cc(Br)ccc3nc12 [HP 14] | 75 (≈ 27.6 µg/mL) |  |  | 9.38 (≈ 3.45 µg/mL) |  | 75 (≈ 27.6 µg/mL) |  |  |  |
| Cc1ccc2nc3c(O)c(Br)cc(C)c3nc2c1C [HP 7] | 50 (≈ 15.9 µg/mL) |  |  |  |  |  |  |  |  |
| Cc1cccc2nc3c(O)c(Br)cc(C)c3nc12 [HP 5] | 37.5 (≈ 11.4 µg/mL) |  |  | 9.38 (≈ 2.84 µg/mL) |  |  | > 100 |  | MIC [10, 23]: 12.5 µM (≈ 3.79 µg/mL) |
| Cc1ccc2nc3c(O)c(Br)cc(Br)c3nc2c1C [HP 19] |  |  |  | 0.15 (≈ 0.0573 µg/mL) | 0.15 (≈ 0.0573 µg/mL) |  | 0.15 to 1.56 (≈ 0.0573 to 0.596 µg/mL) | 0.15 (≈ 0.0573 µg/mL) | MIC [10, 23]: 0.1 µM (≈ 0.0382 µg/mL); MIC [11, 19]: 0.3 µM (≈ 0.115 µg/mL); MIC [11, 24]: 0.2 µM (≈ 0.0764 µg/mL); MIC [12, 20]: 6.25 µM (≈ 2.39 µg/mL); MIC ([12]; single plate shown as picture, read-out: MIC (µM), MIC Assay Against S. epidermidis 12228): 6.25 µM (≈ 2.39 µg/mL); MIC ([13]; single plate shown as picture, read-out: MIC (µM), MIC Assay Against VRE 700221): 0.2 µM (≈ 0.0764 µg/mL); IC50 at 24 h [5]: > 100 µM; hemolysis at 1 h, 200 µM [9]: 5.3% |
| CC(=O)NC[C@H]1CN(c2ccc(N3CCOCC3)c(F)c2)C(=O)O1 [linezolid, reference compound] |  |  | 3.13 (≈ 1.06 µg/mL) | 12.5 (≈ 4.22 µg/mL) | 12.5 (≈ 4.22 µg/mL) | 3.13 (≈ 1.06 µg/mL) | 3.13 (≈ 1.06 µg/mL) | 3.13 (≈ 1.06 µg/mL) | MIC [11, 19]: 3.13 µM (≈ 1.06 µg/mL); MRSA BAA-1707 MBEC ([6]; CBD, 24 hours treatment): > 2000 µM; MBC ([6]; Staphylococcus aureus, 24 h): 31.3 µM (≈ 10.6 µg/mL); minimal effective concentration ([6]; Staphylococcus aureus, 24 h, read-out: MRSA BAA-1707 MBEC): > 2000 µM |
| Oc1cccc2nc3ccccc3nc12 [1-OHP, 1-hydroxyphenazine, reference compound] |  |  |  |  |  |  |  |  | MIC ([14]; Table 2, MRSA BAA-1707, no metal(II) cation added, read-out: MIC): 250 µM; MIC ([14]; copper(II) at 200 µM co-treatment, read-out: MIC w/Cu2+): 75 µM; MIC ([14]; iron(II) at 200 µM co-treatment, read-out: MIC w/Fe2+): 250 µM; MIC ([14]; magnesium(II) at 200 µM co-treatment, read-out: MIC w/Mg2+): 250 µM; MIC ([14]; zinc(II) at 200 µM co-treatment, read-out: MIC w/Zn2+): > 500 µM |
